Measurements: article PMC11822212, “High-throughput screening identifies Aurora kinase B as a critical therapeutic target for Merkel cell carcinoma” (Nature Communications, 2025)

Legend:
Format in all cases: cell-based, human
MCC13 cells (VN-MCC) = assay: qHTS cell viability (CellTiter-Glo, 72 h; primary and follow-up small molecule screen); details: for Percent viability: MCC13, 72h
MCC26 cells (VN-MCC) = assay: as above; details: for Percent viability: MCC26, 72h
UISO cells (VN-MCC) = assay: as above; details: UISO; for Percent viability: 72h
WAGA cells (VP-MCC) = assay: as above; details: WAGA; for Percent viability: 72h
MKL-1 cells (VP-MCC) = assay: as above; details: for Percent viability: MKL1, 72h
MKL-2 cells (VP-MCC) = assay: as above; details: for Percent viability: MKL2, 72h
[1] = tested on: VP-MCC cell lines (WAGA, MKL-1, MKL-2); assay: qHTS cell viability, VP-MCC cell lines as a group (mean AUC, VP.MCC.avg); details: re-tested in triplicate, follow-up screen

Compound: Cc1cc(Nc2cc(N3CCN(C)CC3)nc(Sc3ccc(NC(=O)C4CC4)cc3)n2)[nH]n1 [Tozasertib, reference compound]
- Percent viability (MCC13 cells (VN-MCC); Log (M) -5.33646): 14.5%
- Percent viability (MCC13 cells (VN-MCC); Log (M) -5.81358): 69.4%
- Percent viability (MCC13 cells (VN-MCC); Log (M) -6.2907): 72.9%
- Percent viability (MCC13 cells (VN-MCC); Log (M) -6.76782): 89.8%
- Percent viability (MCC13 cells (VN-MCC); Log (M) -7.24494): 103.0%
- Percent viability (MCC13 cells (VN-MCC); Log (M) -7.72207): 85.9%
- Percent viability (MCC13 cells (VN-MCC); Log (M) -8.19919): 106.1%
- Percent viability (MCC13 cells (VN-MCC); Log (M) -8.67631): 96.2%
- Percent viability (MCC13 cells (VN-MCC); Log (M) -9.15343): 118.3%
- Percent viability (MCC13 cells (VN-MCC); Log (M) -9.63055): 100.0%
- Percent viability (MCC13 cells (VN-MCC); Log (M) -10.1077): 108.5%
- Area under the dose-response curve (AUC) MCC13 Replicate 1 (MCC13 cells (VN-MCC); follow-up screen, MCC13, replicate 1): 420.2
- Area under the dose-response curve (AUC) MCC13 Replicate 2 (MCC13 cells (VN-MCC); follow-up screen, MCC13, replicate 2): 430.9
- Area under the dose-response curve (AUC) MCC13 Replicate 3 (MCC13 cells (VN-MCC); follow-up screen, MCC13, replicate 3): 459.4
- Percent viability (MCC26 cells (VN-MCC); Log (M) -5.33646): 26.6%
- Percent viability (MCC26 cells (VN-MCC); Log (M) -5.81358): 59.4%
- Percent viability (MCC26 cells (VN-MCC); Log (M) -6.2907): 79.7%
- Percent viability (MCC26 cells (VN-MCC); Log (M) -6.76782): 87.3%
- Percent viability (MCC26 cells (VN-MCC); Log (M) -7.24494): 90.3%
- Percent viability (MCC26 cells (VN-MCC); Log (M) -7.72207): 87.4%
- Percent viability (MCC26 cells (VN-MCC); Log (M) -8.19919): 90.8%
- Percent viability (MCC26 cells (VN-MCC); Log (M) -8.67631): 96.9%
- Percent viability (MCC26 cells (VN-MCC); Log (M) -9.15343): 92.6%
- Percent viability (MCC26 cells (VN-MCC); Log (M) -9.63055): 87.8%
- Percent viability (MCC26 cells (VN-MCC); Log (M) -10.1077): 88.7%
- Area under the dose-response curve (AUC) MCC26 Replicate 1 (MCC26 cells (VN-MCC); follow-up screen, MCC26, replicate 1): 399.1
- Area under the dose-response curve (AUC) MCC26 Replicate 2 (MCC26 cells (VN-MCC); follow-up screen, MCC26, replicate 2): 396.0
- Area under the dose-response curve (AUC) MCC26 Replicate 3 (MCC26 cells (VN-MCC); follow-up screen, MCC26, replicate 3): 410.6
- Percent viability (UISO cells (VN-MCC); Log (M) -5.33646): 29.1%
- Percent viability (UISO cells (VN-MCC); Log (M) -5.81358): 58.8%
- Percent viability (UISO cells (VN-MCC); Log (M) -6.2907): 69.6%
- Percent viability (UISO cells (VN-MCC); Log (M) -6.76782): 70.0%
- Percent viability (UISO cells (VN-MCC); Log (M) -7.24494): 74.4%
- Percent viability (UISO cells (VN-MCC); Log (M) -7.72207): 84.6%
- Percent viability (UISO cells (VN-MCC); Log (M) -8.19919): 94.4%
- Percent viability (UISO cells (VN-MCC); Log (M) -8.67631): 100.2%
- Percent viability (UISO cells (VN-MCC); Log (M) -9.15343): 102.6%
- Percent viability (UISO cells (VN-MCC); Log (M) -9.63055): 98.1%
- Percent viability (UISO cells (VN-MCC); Log (M) -10.1077): 97.1%
- Area under the dose-response curve (AUC) UISO Replicate 1 (UISO cells (VN-MCC); follow-up screen, replicate 1): 350.8
- Area under the dose-response curve (AUC) UISO Replicate 2 (UISO cells (VN-MCC); follow-up screen, replicate 2): 389.2
- Area under the dose-response curve (AUC) UISO Replicate 3 (UISO cells (VN-MCC); follow-up screen, replicate 3): 355.0
- Percent viability (WAGA cells (VP-MCC); Log (M) -5.33646): 23.8%
- Percent viability (WAGA cells (VP-MCC); Log (M) -5.81358): 31.7%
- Percent viability (WAGA cells (VP-MCC); Log (M) -6.2907): 25.7%
- Percent viability (WAGA cells (VP-MCC); Log (M) -6.76782): 41.2%
- Percent viability (WAGA cells (VP-MCC); Log (M) -7.24494): 47.8%
- Percent viability (WAGA cells (VP-MCC); Log (M) -8.19919): 107.2%
- Percent viability (WAGA cells (VP-MCC); Log (M) -8.67631): 105.4%
- Percent viability (WAGA cells (VP-MCC); Log (M) -9.15343): 101.2%
- Percent viability (WAGA cells (VP-MCC); Log (M) -9.63055): 100.0%
- Percent viability (WAGA cells (VP-MCC); Log (M) -10.1077): 100.0%
- Area under the dose-response curve (AUC) WAGA Replicate 1 (WAGA cells (VP-MCC); follow-up screen, replicate 1): 353.1
- Area under the dose-response curve (AUC) WAGA Replicate 2 (WAGA cells (VP-MCC); follow-up screen, replicate 2): 343.3
- Area under the dose-response curve (AUC) WAGA Replicate 3 (WAGA cells (VP-MCC); follow-up screen, replicate 3): 330.6
- Percent viability (MKL-1 cells (VP-MCC); Log (M) -5.33646): 35.7%
- Percent viability (MKL-1 cells (VP-MCC); Log (M) -5.81358): 29.2%
- Percent viability (MKL-1 cells (VP-MCC); Log (M) -6.2907): 29.7%
- Percent viability (MKL-1 cells (VP-MCC); Log (M) -6.76782): 36.8%
- Percent viability (MKL-1 cells (VP-MCC); Log (M) -7.24494): 39.2%
- Percent viability (MKL-1 cells (VP-MCC); Log (M) -7.72207): 37.5%
- Percent viability (MKL-1 cells (VP-MCC); Log (M) -8.19919): 101.6%
- Percent viability (MKL-1 cells (VP-MCC); Log (M) -8.67631): 103.8%
- Percent viability (MKL-1 cells (VP-MCC); Log (M) -9.15343): 98.2%
- Percent viability (MKL-1 cells (VP-MCC); Log (M) -9.63055): 98.1%
- Percent viability (MKL-1 cells (VP-MCC); Log (M) -10.1077): 100.0%
- Area under the dose-response curve (AUC) MKL-1 Replicate 1 (MKL-1 cells (VP-MCC); follow-up screen, MKL-1, replicate 1): 300.3
- Area under the dose-response curve (AUC) MKL-1 Replicate 2 (MKL-1 cells (VP-MCC); follow-up screen, MKL-1, replicate 2): 306.3
- Area under the dose-response curve (AUC) MKL-1 Replicate 3 (MKL-1 cells (VP-MCC); follow-up screen, MKL-1, replicate 3): 312.1
- Percent viability (MKL-2 cells (VP-MCC); Log (M) -5.33646): 29.1%
- Percent viability (MKL-2 cells (VP-MCC); Log (M) -5.81358): 82.7%
- Percent viability (MKL-2 cells (VP-MCC); Log (M) -6.2907): 74.7%
- Percent viability (MKL-2 cells (VP-MCC); Log (M) -6.76782): 62.9%
- Percent viability (MKL-2 cells (VP-MCC); Log (M) -7.24494): 51.8%
- Percent viability (MKL-2 cells (VP-MCC); Log (M) -7.72207): 51.5%
- Percent viability (MKL-2 cells (VP-MCC); Log (M) -8.19919): 79.6%
- Percent viability (MKL-2 cells (VP-MCC); Log (M) -8.67631): 111.3%
- Percent viability (MKL-2 cells (VP-MCC); Log (M) -9.15343): 116.9%
- Percent viability (MKL-2 cells (VP-MCC); Log (M) -9.63055): 110.0%
- Percent viability (MKL-2 cells (VP-MCC); Log (M) -10.1077): 101.6%
- Area under the dose-response curve (AUC) MKL-2 Replicate 1 (MKL-2 cells (VP-MCC); follow-up screen, MKL-2, replicate 1): 388.8
- Area under the dose-response curve (AUC) MKL-2 Replicate 2 (MKL-2 cells (VP-MCC); follow-up screen, MKL-2, replicate 2): 384.9
- Area under the dose-response curve (AUC) MKL-2 Replicate 3 (MKL-2 cells (VP-MCC); follow-up screen, MKL-2, replicate 3): 409.6
- VP-MCC viability (in words) [1]: consistently and potently reduced VP-MCC viability
